The target in the test is Tyrosine-protein kinase BTK (Homo sapiens) (UniProt Q06187). Kind of test: BTK kinase inhibition, dose response, biochemical, Z'-LYTE, FRET readout, direct format (AID 1671224). Particulars: recombinant BTK, Z'-LYTE FRET peptide phosphorylation.
Tyrosine-protein kinase BTK (Homo sapiens), sequence (Q06187 whole entry, looked up): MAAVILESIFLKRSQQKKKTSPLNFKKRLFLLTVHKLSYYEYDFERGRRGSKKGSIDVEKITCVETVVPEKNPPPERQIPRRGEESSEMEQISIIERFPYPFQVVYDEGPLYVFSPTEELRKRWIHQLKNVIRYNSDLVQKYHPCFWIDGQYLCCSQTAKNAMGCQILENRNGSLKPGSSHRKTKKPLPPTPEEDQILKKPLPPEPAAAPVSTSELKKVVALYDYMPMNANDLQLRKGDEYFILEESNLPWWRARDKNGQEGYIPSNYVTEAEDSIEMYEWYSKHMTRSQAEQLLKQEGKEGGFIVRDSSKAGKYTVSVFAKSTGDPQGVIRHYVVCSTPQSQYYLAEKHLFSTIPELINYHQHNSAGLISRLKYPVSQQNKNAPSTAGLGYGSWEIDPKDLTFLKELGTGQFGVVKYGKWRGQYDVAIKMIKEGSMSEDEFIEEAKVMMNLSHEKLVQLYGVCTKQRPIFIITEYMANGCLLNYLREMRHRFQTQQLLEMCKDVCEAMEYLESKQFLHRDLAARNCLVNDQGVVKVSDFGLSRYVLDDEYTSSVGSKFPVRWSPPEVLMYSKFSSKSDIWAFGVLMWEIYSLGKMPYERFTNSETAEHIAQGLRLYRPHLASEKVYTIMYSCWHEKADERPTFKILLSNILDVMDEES

For `COc1cc2ncnc(Nc3cccc(Cl)c3)c2cc1OC`, the IC50 (usually the concentration that gives 50% inhibition) was 3.61 µM.

The values above are taken from PubChem BioAssay AID1671224.
